Measured values taken from patent US11865195B2, “Evaluation of presence of and vulnerability to atrial fibrillation and other indications using matrix metalloproteinase-based imaging” (Lantheus Medical Imaging, Inc., priority 2011, dated 2024).
Read-outs that look alike come from different tables or passages of the source.

Tests used:
[1] = system: MMPs; conditions: cited from earlier work; for selectivity for MMP-2 and MMP-9 over the other MMPs: derivatized alanine hydroxamates
[2] = biological target: T1, activated MMP-9 (Homo sapiens, UniProt P14780); experiment: In-vitro MMP inhibition assay (fluorogenic peptide substrate); type: biochemical; conditions: 1 h at 27° C., triplicate
T1 construct: purchased R&D Systems
T1 sequence (P14780 107-707 limits assumed): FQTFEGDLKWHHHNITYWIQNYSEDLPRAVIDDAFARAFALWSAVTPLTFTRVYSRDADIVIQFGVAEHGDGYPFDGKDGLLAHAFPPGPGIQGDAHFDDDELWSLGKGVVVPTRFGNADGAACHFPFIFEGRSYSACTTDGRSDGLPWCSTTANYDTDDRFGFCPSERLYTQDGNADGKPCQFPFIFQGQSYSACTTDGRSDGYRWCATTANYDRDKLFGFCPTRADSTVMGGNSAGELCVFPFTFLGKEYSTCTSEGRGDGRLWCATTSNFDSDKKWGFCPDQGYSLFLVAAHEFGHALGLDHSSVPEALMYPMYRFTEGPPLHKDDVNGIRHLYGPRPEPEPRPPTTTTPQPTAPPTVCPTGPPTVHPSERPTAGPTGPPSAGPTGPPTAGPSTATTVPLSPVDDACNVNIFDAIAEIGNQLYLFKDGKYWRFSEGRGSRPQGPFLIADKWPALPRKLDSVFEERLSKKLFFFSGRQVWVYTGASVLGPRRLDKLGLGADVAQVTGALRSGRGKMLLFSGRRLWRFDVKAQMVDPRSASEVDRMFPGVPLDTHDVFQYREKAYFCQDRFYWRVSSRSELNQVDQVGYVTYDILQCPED
Protocol: (§1) Individual inhibitors were dissolved in TCN buffer (50 mM Tris-HCl, 10 mM CaCl2, 150 mM […], 0.05% Brij 35 at pH 7.5) at appropriate dilutions then added to the wells of a microtiter plate (10 μL/well) in triplicate. Each well of test agent (and appropriate control wells) was then treated with activated MMP-2 or 9 (10 μL of a 40 nM solution in 50 mM Hepes, 10 mM CaCl2), 1% Brij 35 at pH 7.5; R&D Systems) followed by 30 μL TCN buffer and 150 μL the fluorogenic peptide substrate (Mca-PLGL-Dpa-AR-NH2; R&D Systems). The resulting mixtures were incubated 1 h at 27° C. then analyzed using a FL600 fluorescent plate reader (excitation=310/20; emission=420/50; optics=bottom; sensitivity=225) and KC4 Software.

[3] = biological target: T2, activated MMP-2 (Homo sapiens, UniProt P08253); experiment: as above; type: biochemical; conditions: 1 h at 27° C., triplicate
T2 construct: purchased R&D Systems
T2 sequence (P08253 110-660): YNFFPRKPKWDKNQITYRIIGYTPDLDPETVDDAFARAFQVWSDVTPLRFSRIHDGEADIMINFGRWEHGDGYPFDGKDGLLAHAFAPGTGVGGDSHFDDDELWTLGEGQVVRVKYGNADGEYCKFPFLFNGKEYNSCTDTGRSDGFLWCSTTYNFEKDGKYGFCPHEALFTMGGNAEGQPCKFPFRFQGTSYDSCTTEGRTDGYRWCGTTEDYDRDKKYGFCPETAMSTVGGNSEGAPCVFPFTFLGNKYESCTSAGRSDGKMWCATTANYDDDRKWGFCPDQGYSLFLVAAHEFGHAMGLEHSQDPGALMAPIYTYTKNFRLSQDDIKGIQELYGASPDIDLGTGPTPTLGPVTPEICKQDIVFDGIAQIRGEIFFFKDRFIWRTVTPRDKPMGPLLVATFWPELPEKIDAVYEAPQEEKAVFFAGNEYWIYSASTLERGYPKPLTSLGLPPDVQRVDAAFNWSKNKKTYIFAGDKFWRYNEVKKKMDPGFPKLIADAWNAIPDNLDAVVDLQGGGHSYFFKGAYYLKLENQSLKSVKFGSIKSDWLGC
Protocol: as §1

[4] = Tissue biodistribution in the Oncomouse; type: in vivo, mice; conditions: tail vein injection, 1 h post-injection, mean±SEM
Protocol: Oncomice®, obtained through an in-house breeding program, were anesthetized intramuscularly with 0.1 mL of ketamine/acepromazine (1.8 mL saline, 1.0 mL ketamine, and 0.2 mL acepromazine) prior to dosing and tissue sampling. Individual mice were then injected via the tail vein with an imaging agent of the present invention (0.5-2.0 mCi/kg in 0.1 mL). Mice were euthanized and biodistribution performed at 1 h post-injection. Selected tissues were removed, weighed, and counted on a gamma counter. Results are expressed as the percentage of injected dose per gram tissue (mean±SEM; Table 3).

[5] = system: activated MMPs; experiment: MicroSPECT/CT imaging of aortic arch MMP activation in ApoE-/- mice under anti-lipid therapies; type: in vivo; conditions: 4 weeks of therapy; HFD group 4.99±0.27
Protocol: Methods: ApoE^−/− mice were fed a high fat diet (HFD) for 2 months to induce atherosclerosis. After two months, the mice were randomly assigned to one of 4 groups: HFD, HFD plus simvastatin (Sim), HFD plus fenofibrate (Fen) and high fat withdrawal (HFW). MicroSPECT/CT imaging using ^99mTc-RP805, a tracer with specificity for activated MMPs was performed after one week and 4 weeks.

Compound: CCCCCCCCC[C@H](CC(=O)NO)C(=O)N[C@H](C(=O)NC)C(C)(C)C [1-5]
- selectivity for MMP-2 over MMP-1 and MMP-3 ([1]; long alkyl substituent at P1' position): imparts selectivity

Compound: CNC(=O)[C@@H]1Cc2ccc(cc2)OCCC[C@H](C(=O)NO)[C@@H](CC(C)C)C(=O)N1 [1-6]
- activity against MMPs ([1]; macrocyclic succinyl hydroxamate): nanomolar activity

Compound: O=C(NO)C1CCCN[C@@H]1C(=O)N1CCC(c2ccccc2)CC1 (stereo partly drawn) [1-8]
- inhibition of MMPs ([1]; succinyl hydroxamate with modified P2' and P3' positions): potent inhibition

Compound: COc1ccc(Oc2ccc([C@]3(C)CCN([C@H](C)C(=O)NO)C3=O)cc2)cc1OC [1-11]
- selectivity for MMP-2 and MMP-9 over the other MMPs [1]: show selectivity

Compound: C[C@H](C(=O)NO)N1CCNc2cc(OCc3ccccc3)ccc2S1(=O)=O [1-12]
- selectivity for MMP-2 and MMP-9 over the other MMPs [1]: show selectivity

Compound: O=C(NO)C1(CS(=O)(=O)c2ccc(Oc3ccc(Cl)cc3)cc2)CCOCC1 [1-13]
- selectivity for MMP-2 and MMP-9 over MMP-1 [1]: selectivity

Compound: CCCCCCC[C@H](CC(=O)CS)C(=O)N[C@H](C(=O)NC)C(C)(C)C [1-15]
- activity against MMPs ([1]; succinyl thiol): good activity

Compound: CC(C)C[C@H]1C(=O)N[C@H](C(=O)NCCCF)Cc2ccc(cc2)OCCC[C@@H]1C(=O)NO [Imaging Agent 1]
- IC50 [2]: 3.54 nM
- IC50 [3]: 5.19 nM

Compound: CC(C)C[C@H]1C(=O)N[C@H](C(=O)NCCCCCCF)Cc2ccc(cc2)OCCC[C@@H]1C(=O)NO [Imaging Agent 2]
- IC50 [2]: 20.2 nM
- IC50 [3]: 31.6 nM
- Imaging agent distribution, blood [4]: 1.07 ± 0.060 % ID/g
- Imaging agent distribution, bone [4]: 2.02 ± 0.320 % ID/g
- Imaging agent distribution, heart [4]: 0.95 ± 0.065 % ID/g
- Imaging agent distribution, kidney [4]: 20.6 ± 3.25 % ID/g
- Imaging agent distribution, liver [4]: 13.1 ± 2.17 % ID/g
- Imaging agent distribution, lung [4]: 0.97 ± 0.121 % ID/g
- Imaging agent distribution, muscle [4]: 0.50 ± 0.073 % ID/g
- Imaging agent distribution, spleen [4]: 0.69 ± 0.085 % ID/g
- Imaging agent distribution, tumor [4]: 0.95 ± 0.103 % ID/g
- Imaging agent distribution, urine [4]: 71.8 % ID/g

Compound: CC(C)C[C@H]1C(=O)N[C@H](C(=O)NCC(=O)NCCCF)Cc2ccc(cc2)OCCC[C@@H]1C(=O)NO [Imaging Agent 3]
- IC50 [2]: 2.59 nM
- IC50 [3]: 4.61 nM

Compound: CC(C)C[C@H]1C(=O)N[C@H](C(=O)NCC(=O)NCCCCCF)Cc2ccc(cc2)OCCC[C@@H]1C(=O)NO [Imaging Agent 4]
- IC50 [2]: 15.3 nM
- IC50 [3]: 15.4 nM
- Imaging agent distribution, blood [4]: 0.41 ± 0.099 % ID/g
- Imaging agent distribution, bone [4]: 1.28 ± 0.200 % ID/g
- Imaging agent distribution, heart [4]: 0.36 ± 0.064 % ID/g
- Imaging agent distribution, kidney [4]: 14.8 ± 1.79 % ID/g
- Imaging agent distribution, liver [4]: 23.6 ± 5.19 % ID/g
- Imaging agent distribution, lung [4]: 0.45 ± 0.071 % ID/g
- Imaging agent distribution, muscle [4]: 0.17 ± 0.043 % ID/g
- Imaging agent distribution, spleen [4]: 0.34 ± 0.057 % ID/g
- Imaging agent distribution, tumor [4]: 1.12 ± 0.204 % ID/g
- Imaging agent distribution, urine [4]: 7.67 ± 5.00 % ID/g

Compound: CC(C)C[C@H]1C(=O)N[C@H](C(=O)NCc2ccc(F)cc2)Cc2ccc(cc2)OCCC[C@@H]1C(=O)NO [Imaging Agent 5]
- IC50 [2]: 0.74 nM
- IC50 [3]: 0.58 nM

Compound: CC(C)C[C@H]1C(=O)N[C@H](C(=O)NCc2ccc(OCCCF)cc2)Cc2ccc(cc2)OCCC[C@@H]1C(=O)NO [Imaging Agent 6]
- IC50 [2]: 2.98 nM
- IC50 [3]: 2.74 nM
- Imaging agent distribution, blood [4]: 0.88 ± 0.061 % ID/g
- Imaging agent distribution, bone [4]: 2.86 ± 0.124 % ID/g
- Imaging agent distribution, heart [4]: 0.69 ± 0.073 % ID/g
- Imaging agent distribution, kidney [4]: 6.66 ± 1.46 % ID/g
- Imaging agent distribution, liver [4]: 11.3 ± 1.73 % ID/g
- Imaging agent distribution, lung [4]: 1.69 ± 0.382 % ID/g
- Imaging agent distribution, muscle [4]: 0.44 ± 0.049 % ID/g
- Imaging agent distribution, spleen [4]: 0.81 ± 0.021 % ID/g
- Imaging agent distribution, tumor [4]: 0.73 ± 0.026 % ID/g
- Imaging agent distribution, urine [4]: 7.21 ± 6.71 % ID/g

Compound: CC(C)OC(=O)C(C)(C)Oc1ccc(C(=O)c2ccc(Cl)cc2)cc1 [fenofibrate]
- 99mTc-RP805 uptake in the aortic arch under HFD plus anti-lipid drug [5]: 2.23±0.28 counts per voxel per mCi injected dose

Compound: CCC(C)(C)C(=O)O[C@H]1C[C@@H](C)C=C2C=C[C@H](C)[C@H](CC[C@@H]3C[C@@H](O)CC(=O)O3)[C@H]21 [simvastatin]
- 99mTc-RP805 uptake in the aortic arch under HFD plus anti-lipid drug [5]: 3.17±0.52 counts per voxel per mCi injected dose
